Assay results published in paper PMC7960626, “Phase I study assessing the mass balance, pharmacokinetics, and excretion of [^14C]-pevonedistat, a NEDD8-activating enzyme inhibitor in patients with advanced solid tumors” (Investigational New Drugs, 2020).
Where two headings read alike, the source gives them in different places.

Experiments:
[1] = Safety (TEAEs) of pevonedistat days 1, 3, 5 plus carboplatin/paclitaxel or docetaxel in 3-week cycles (part B); type: in vivo, human; details: for On-study deaths, patients: part B, Total (N = 7)
Description: This was a two-part (A and B), open-label, multicenter, mass balance, distribution, metabolism, excretion (DME) study in adult patients with advanced solid tumors. In part A, patients received a single IV infusion of [^14C]-pevonedistat 25 mg/m^2 (containing approximately 60–85 µCi, or 2.22–3.145 MBq, of total radioactivity) at a single center (Duna Medical Center, Budapest, Hungary). Patients were required to stay at the part A study site for approximately 8 days or until the discharge criteria were met, with a maximum estimated confinement period of 9–14 days. Upon completion of part A, patients had the option to participate in part B at Medical Center Hungarian Defense Forces, Budapest, Hungary. In part B, patients received treatment in 3-week cycles with either: pevonedistat 20 mg/m^2 on days 1, 3, and 5 plus carboplatin AUC5 and paclitaxel 175 mg/m^2 on day 1; or pevonedistat 25 mg/m^2 on days 1, 3, and 5 plus docetaxel 75 mg/m^2 on day 1. Treatment was administered for 12 cycles or until discontinuation criteria were met.
Blood samples were collected for total radioactivity and PK assessments in whole blood and plasma at prespecified time points (pre dose [within 1 h before the start of the pevonedistat infusion], end of infusion, then 0.5, 1, 2, 3, 4, 8, 12, 24, 48, 72, 96, 120, 144 and 168 hours post dose). Complete urinary and fecal output were collected for analysis of PK (urine) and total radioactivity (urine and feces) throughout the confinement period until discharge criteria were met. Bioanalytical assay methods are shown in the Supplementary Methods. Safety was assessed by incidence and severity of TEAEs, vital signs, physical examinations, electrocardiograms, and clinical laboratory tests, and toxicities were graded according to the National Cancer Institute Common Terminology Criteria for Adverse Events (NCI CTCAE), version 4.03. In part B, disease assessments were conducted using radiological evaluations (computed tomography [CT] scan or magnetic resonance imaging [MRI], as clinically indicated).
PK data were summarized using descriptive statistics, and the PK and mass balance parameters described in Supplementary Table S1 were calculated by non-compartmental analysis for each individual patient. Safety was assessed in all patients who received at least one dose of pevonedistat, and TEAEs were coded according to the Medical Dictionary for Regulatory Activities (MedDRA), version 20.0. Analysis of efficacy in part B was descriptive; disease response was assessed in all patients who received at least one dose of pevonedistat, had measurable disease (per entry criteria for part B), and had at least one post-baseline disease assessment. Response assessment was done by the investigator using Response Evaluation Criteria in Solid Tumors (RECIST) version 1.1. SAS version 9.4 was used for all statistical analyses.

advanced solid tumors = test system: advanced solid tumors; set-up: method as in PMID 29781056; details: cited from earlier work
[2] = test system: human xenograft tumors of activated B-cell (ABC) and germinal center B-cell (GCB) diffuse large B-cell lymphoma (DLBCL); set-up: method as in PMID 20525923; details: in vivo administration, mice; cited from earlier work
[3] = human, in vivo, 12 3-week cycles
[4] = in combination with carboplatin plus paclitaxel

## NS(=O)(=O)OC[C@@H]1C[C@@H](n2ccc3c(N[C@H]4CCc5ccccc54)ncnc32)C[C@@H]1O [Pevonedistat]
[1]; human, in vivo
  Abdominal distension, All Grades: 1 (14.3) n (%)
  Abdominal distension, Grade ≥ 3: 0 n (%)
  Abdominal pain upper, All Grades: 1 (14.3) n (%)
  Abdominal pain upper, Grade ≥ 3: 0 n (%)
  Abdominal pain, All Grades: 1 (14.3) n (%)
  Abdominal pain, Grade ≥ 3: 0 n (%)
  Alopecia, All Grades: 1 (14.3) n (%)
  Alopecia, Grade ≥ 3: 0 n (%)
  Arthralgia, All Grades: 1 (14.3) n (%)
  Arthralgia, Grade ≥ 3: 0 n (%)
  Asthenia, All Grades: 3 patients (42.9%) n (%)
  Back pain, All Grades: 1 (14.3) n (%)
  Back pain, Grade ≥ 3: 0 n (%)
  Blood bilirubin increased, All Grades: 1 (14.3) n (%)
  Blood bilirubin increased, Grade ≥ 3: 0 n (%)
  Blood creatinine increased, All Grades: 1 (14.3) n (%)
  Blood creatinine increased, Grade ≥ 3: 0 n (%)
  Blood urea increased, All Grades: 1 (14.3) n (%)
  Blood urea increased, Grade ≥ 3: 0 n (%)
  Bone pain, All Grades: 1 (14.3) n (%)
  Bone pain, Grade ≥ 3: 0 n (%)
  Chest pain, All Grades: 1 (14.3) n (%)
  Chest pain, Grade ≥ 3: 0 n (%)
  Chills, All Grades: 1 (14.3) n (%)
  Chills, Grade ≥ 3: 0 n (%)
  Conjunctival hemorrhage, All Grades: 1 (14.3) n (%)
  Conjunctival hemorrhage, Grade ≥ 3: 0 n (%)
  Diarrhea, All Grades: 3 patients (42.9%) n (%)
  Dyspnea, All Grades: 1 (14.3) n (%)
  Dyspnea, Grade ≥ 3: 0 n (%)
  Edema peripheral, All Grades: 1 (14.3) n (%)
  Edema peripheral, Grade ≥ 3: 0 n (%)
  Fibrosarcoma, All Grades: 1 (14.3) n (%)
  Fibrosarcoma, Grade ≥ 3: 1 (14.3) n (%)
  General physical health deterioration, All Grades: 1 (14.3) n (%)
  General physical health deterioration, Grade ≥ 3: 1 (14.3) n (%)
  Grade ≥ 3 drug-related decreased platelet count: 1 patient
  Grade ≥ 3 drug-related increased ALT and AST: 1 patient
  Leukocytosis, All Grades: 1 (14.3) n (%)
  Leukocytosis, Grade ≥ 3: 0 n (%)
  Leukopenia, All Grades: 1 (14.3) n (%)
  Leukopenia, Grade ≥ 3: 0 n (%)
  Mueller’s mixed tumor, All Grades: 1 (14.3) n (%)
  Mueller’s mixed tumor, Grade ≥ 3: 0 n (%)
  Nausea, All Grades: 3 patients (42.9%) n (%)
  Pain, Grade ≥ 3: 0 n (%)
  Peripheral venous disease, All Grades: 1 (14.3) n (%)
  Peripheral venous disease, Grade ≥ 3: 0 n (%)
  Platelet count decreased, All Grades: 1 (14.3) n (%)
  Platelet count decreased, Grade ≥ 3: 1 (14.3) n (%)
  Pneumonia, All Grades: 1 (14.3) n (%)
  Pneumonia, Grade ≥ 3: 1 (14.3) n (%)
  Pyrexia, All Grades: 2 (28.6) n (%)
  Pyrexia, Grade ≥ 3: 0 n (%)
  Rash, All Grades: 1 (14.3) n (%)
  Rash, Grade ≥ 3: 0 n (%)
  Serious TEAEs, patients: Three patients (42.9%) n (%)
  Spinal compression fracture, All Grades: 1 (14.3) n (%)
  Spinal compression fracture, Grade ≥ 3: 0 n (%)
  Swelling, All Grades: 1 (14.3) n (%)
  Swelling, Grade ≥ 3: 0 n (%)
  TEAEs, patients: 7 n (%)
  TEAEs: Drug-related (any drug of the combination), patients: 6 patients (85.7%) n (%)
  TEAEs: Grade ≥ 3, patients: Four patients (57.1%) n (%)
  TEAEs: Grade ≥ 3 drug-related, patients: 2 n (%)
  Upper respiratory tract infection, All Grades: 1 (14.3) n (%)
  Upper respiratory tract infection, Grade ≥ 3: 0 n (%)
  Vomiting, All Grades: 4 patients (57.1%) n (%)
  Weight decreased, All Grades: 1 (14.3) n (%)
  Weight decreased, Grade ≥ 3: 0 n (%)
[1]; [3]
  ALT increased, All Grades: 2 (28.6) n (%)
  ALT increased, Grade ≥ 3: 1 (14.3) n (%)
  AST increased, All Grades: 2 (28.6) n (%)
  AST increased, Grade ≥ 3: 1 (14.3) n (%)
  Anemia, All Grades: 2 (28.6) n (%)
  Anemia, Grade ≥ 3: 0 n (%)
  Asthenia, All Grades: 3 (42.9) n (%)
  Asthenia, Grade ≥ 3: 0 n (%)
  Diarrhea, All Grades: 3 (42.9) n (%)
  Diarrhea, Grade ≥ 3: 0 n (%)
  Fatigue, All Grades: 2 (28.6) n (%)
  Fatigue, Grade ≥ 3: 0 n (%)
  Nausea, All Grades: 3 (42.9) n (%)
  Nausea, Grade ≥ 3: 0 n (%)
  Pain, All Grades: 2 (28.6) n (%)
  Serious TEAEs, patients: 3 (42.9) n (%)
  Serious TEAEs: Drug-related, patients: 0 n (%)
  Serious TEAEs: Resulting in study discontinuation, patients: 1 (14.3) n (%)
  TEAEs, patients: 7 (100.0) n (%)
  TEAEs: Drug-related (any drug of the combination), patients: 6 (85.7) n (%)
  TEAEs: Grade ≥ 3, patients: 4 (57.1) n (%)
  TEAEs: Grade ≥ 3 drug-related, patients: 2 (28.6) n (%)
  TEAEs: Resulting in study drug discontinuation, patients: 1 (14.3) n (%)
  Thrombocytopenia, All Grades: 2 (28.6) n (%)
  Thrombocytopenia, Grade ≥ 3: 0 n (%)
  Vomiting, All Grades: 4 (57.1) n (%)
  Vomiting, Grade ≥ 3: 0 n (%)
[1]; human, in vivo, po
  Oral herpes, All Grades: 1 (14.3) n (%)
  Oral herpes, Grade ≥ 3: 0 n (%)
[1]; in vivo
  Serious TEAEs: Drug-related, patients: none of which were considered related to treatment
[1]
  On-study deaths, patients: 2 (28.6) n (%)
[1]; listed as pevonedistat
  On-study deaths, patients: Two
Advanced solid tumors; [4]
  maximum tolerated dose (MTD): 20 mg/m^2
  overall response rate [ORR]: 35%
Advanced solid tumors; in combination with docetaxel
  maximum tolerated dose (MTD): 25 mg/m^2
  overall response rate [ORR]: 16%
[2]
  tumor growth: complete tumor growth inhibition
